These results are taken from patent US12590106B2, “Spiromacrocyclic orexin 2 receptor agonists” (H. Lundbeck A/S, priority 2023, dated 2026).

The assay has as its target T1, human Ox2R (Homo sapiens, UniProt O43614).
T1 construct: The gene encoding hOx2R was subcloned into the expression plasmid pcDNA5/FRT/TO; expressed in transfected cells; host or cells: CHO Flp-In cells (pcDNA5/FRT/TO with pOG44 Flp recombinase vector, hygromycin B selection)
T1 sequence (O43614 1-444): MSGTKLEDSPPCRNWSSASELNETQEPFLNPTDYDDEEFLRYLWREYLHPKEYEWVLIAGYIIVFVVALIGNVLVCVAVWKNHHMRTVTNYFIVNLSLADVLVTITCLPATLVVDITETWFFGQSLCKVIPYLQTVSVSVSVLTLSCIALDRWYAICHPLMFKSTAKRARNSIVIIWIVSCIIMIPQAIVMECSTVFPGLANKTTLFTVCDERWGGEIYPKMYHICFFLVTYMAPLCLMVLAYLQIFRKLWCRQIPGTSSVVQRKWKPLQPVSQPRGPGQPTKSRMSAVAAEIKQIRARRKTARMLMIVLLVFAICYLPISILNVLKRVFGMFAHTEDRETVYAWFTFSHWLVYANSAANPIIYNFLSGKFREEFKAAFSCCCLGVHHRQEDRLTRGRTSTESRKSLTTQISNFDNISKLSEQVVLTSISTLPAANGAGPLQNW
As to the kind of experiment: Measurement of OX2R agonist activity (cell-based calcium release assay). Conditions: hOx2R-CHO Flp-In cells, n≥2 tests; for EC50: intracellular calcium, read-out: EC50; for Emax: normalized to assay buffer (0%) and 10 μM Danavorexton (100%), read-out: Emax (%). The method, boiled down: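 CHO Flp-In cells stably expressing human Ox2R, dye-loaded 1 h at 37 °C in HBSS/20 mM HEPES pH 7.4 with 2.5 mM probenecid and 10 mM CaCl2, then stimulated with compound.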
For orientation: A change in cytosolic calcium serves as a functional read-out for many receptors and channels.

Structures are written as SMILES.

For `Cn1cc2c(n1)OCc1coc(n1)[C@]1(CC[C@H](NS(C)(=O)=O)C1)Cc1cc-2c(F)cc1F` [Example 83, N-[(1′S,13R)-16,18-difluoro-4-methyl-spiro[7,11-dioxa-4,5,20-triazatetracyclo[13.3.1.19,12.02,6]icosa-1(18),2,5,9,12(20),15(19),16-heptaene-13,3′-cyclopentane]-1′-yl]methanesulfonamide], the EC50 is 2.6 nM and the Emax stood at 100%.
On the same counts, the results for `CCS(=O)(=O)N[C@H]1CC[C@@]2(Cc3cc(c(F)cc3F)-c3cccc(F)c3OCc3coc2n3)C1` [Example 84, N-[(1′S,14R)-6,17,19-trifluorospiro[8,12-dioxa-21-azatetracyclo[14.3.1.110,13.02,7]henicosa-1(19),2,4,6,10,13(21),16(20),17-octaene-14,3′-cyclopentane]-1′-yl]ethanesulfonamide] are 0.25 nM and 100%.
Take `C[C@H]1Oc2c(F)cccc2-c2cc(ccc2F)C[C@@]2(CC[C@H](NS(C)(=O)=O)C2)c2nc1co2` [Example 85, N-[(1′S,9R,14R)-6,19-difluoro-9-methyl-spiro[8,12-dioxa-21-azatetracyclo[14.3.1.110,13.02,7]henicosa-1(19),2(7),3,5,10,13(21),16(20),17-octaene-14,3′-cyclopentane]-1′-yl]methanesulfonamide]: the EC50 came to 2.3 nM and the Emax turned out to be 100%.
As to `CS(=O)(=O)N[C@H]1CC[C@@]2(Cc3cccc(c3)-c3cccc(c3)OCc3ccnc2n3)C1` [Example 86, N-[(1′S,14R)-spiro[7-oxa-12,21-diazatetracyclo[14.3.1.12,6.19,13]docosa-1(20),2,4,6(22),9,11,13(21),16,18-nonaene-14,3′-cyclopentane]-1′-yl]methanesulfonamide], the EC50 is 90 nM and the Emax stood at 100%.
Taken in the same sequence, the figures for `CS(=O)(=O)N[C@H]1CC[C@@]2(Cc3ccc(F)c(c3)-c3ccc(F)c(F)c3OCc3ccnc2n3)C1` [Example 87, N-[(1′S,15R)-5,6,20-trifluorospiro[8-oxa-13,22-diazatetracyclo[15.3.1.110,14.02,7]docosa-1(21),2,4,6,10,12,14(22),17,19-nonaene-15,3′-cyclopentane]-1′-yl]methanesulfonamide] were 2 nM and 100%.
On the same counts, the results for `CS(=O)(=O)N[C@H]1CC[C@@]2(Cc3ccc(F)c(c3)-c3ccccc3OCc3ccnc2n3)C1` [Example 90, N-[(1′S,15R)-20-fluorospiro[8-oxa-13,22-diazatetracyclo[15.3.1.110,14.02,7]docosa-1(20),2,4,6,10,12,14(22),17(21),18-nonaene-15,3′-cyclopentane]-1′-yl]methanesulfonamide] are 1.1 nM and 110%.
On the same counts, the results for `CS(=O)(=O)N[C@H]1CC[C@@]2(Cc3ccc(F)c(c3)-c3cc(F)cc(F)c3OCc3ccnc2n3)C1` [Example 91, N-[(1′S,15R)-4,6,20-trifluorospiro[8-oxa-13,22-diazatetracyclo[15.3.1.110,14.02,7]docosa-1(20),2,4,6,10,12,14(22),17(21),18-nonaene-15,3′-cyclopentane]-1′-yl]methanesulfonamide] are 0.32 nM and 100%.
For `CS(=O)(=O)N[C@H]1CC[C@@]2(Cc3ccc(F)c(c3)-c3ccc(F)cc3OCc3ccnc2n3)C1` [Example 92, N-[(1′S,15R)-5,20-difluorospiro[8-oxa-13,22-diazatetracyclo[15.3.1.110,14.02,7]docosa-1(20),2,4,6,10,12,14(22),17(21),18-nonaene-15,3′-cyclopentane]-1′-yl]methanesulfonamide], the EC50 was 16 nM and the Emax was 110%.
Taken in the same sequence, the figures for `CS(=O)(=O)N[C@H]1CC[C@@]2(Cc3ccc(F)c(c3)-c3cccc(F)c3OCc3nccc2n3)C1` [Example 95, N-[(1′S,15R)-6,20-difluorospiro[8-oxa-11,22-diazatetracyclo[15.3.1.110,14.02,7]docosa-1(20),2,4,6,10,12,14(22),17(21),18-nonaene-15,3′-cyclopentane]-1′-yl]methanesulfonamide] were 8 nM and 100%.
On the same counts, the results for `CS(=O)(=O)N[C@H]1CC[C@]2(CC1)Cc1cc(c(F)cc1F)-c1cccc(F)c1OCc1coc2n1` [Example 96, trans-N-(6,17,19-trifluorospiro[8,12-dioxa-21-azatetracyclo[14.3.1.110,13.02,7]henicosa-1(19),2,4,6,10,13(21),16(20),17-octaene-14,4′-cyclohexane]-1′-yl)methanesulfonamide] are 0.23 nM and 98%.
As for `CS(=O)(=O)N[C@H]1CC[C@]2(CC1)Cc1ccc(F)c(c1)-c1cccc(F)c1OCc1coc2n1` [Example 97, trans-N-(6,19-difluorospiro[8,12-dioxa-21-azatetracyclo[14.3.1.110,13.02,7]henicosa-1(19),2,4,6,10,13(21),16(20),17-octaene-14,4′-cyclohexane]-1′-yl)methanesulfonamide], the EC50 was 0.39 nM and the Emax is 96%.
Taken in the same sequence, the figures for `CS(=O)(=O)N[C@H]1C[C@@]2(Cc3ccc(F)c(c3)-c3cccc(F)c3OCc3coc2n3)C1` [Example 98, trans-N-(6,19-difluorospiro[8,12-dioxa-21-azatetracyclo[14.3.1.110,13.02,7]henicosa-1(20),2,4,6,10,13(21),16,18-octaene-14,3′-cyclobutane]-1′-yl)methanesulfonamide] were 0.87 nM and 99%.
As to `CS(=O)(=O)N[C@@H]1CC[C@]2(Cc3ccc(F)c(c3)-c3cccc(F)c3OCc3coc2n3)C1` [Example 99, N-[(1′R,14S)-6,19-difluorospiro[8,12-dioxa-21-azatetracyclo[14.3.1.110,13.02,7]henicosa-1(19),2,4,6,10,13(21),16(20),17-octaene-14,3′-cyclopentane]-1′-yl]methanesulfonamide], the 50% effective concentration (EC50) worked out at 3.3 nM and the Emax amounted to 96%.
Turning to `CS(=O)(=O)N[C@H]1CC[C@@]2(Cc3cc(c(F)cc3F)-c3cccc(F)c3OCc3cc(=O)[nH]c2n3)C1` [Example 101, N-[(1′S,15R)-6,18,20-trifluoro-12-oxo-spiro[8-oxa-13,22-diazatetracyclo[15.3.1.110,14.02,7]docosa-1(20),2(7),3,5,10,14(22),17(21),18-octaene-15,3′-cyclopentane]-1′-yl]methanesulfonamide], the EC50 stood at 0.67 nM and the maximal effect (Emax) turned out to be 96%.
Regarding `Cc1nc2c(s1)-c1cc(ccc1F)C[C@@]1(CC[C@H](NS(C)(=O)=O)C1)c1nc(co1)CO2` [Example 102, N-[(1′S,13R)-18-fluoro-4-methyl-spiro[7,11-dioxa-3-thia-5,20-diazatetracyclo[13.3.1.19,12.02,6]icosa-1(18),2(6),4,9,12(20),15(19),16-heptaene-13,3′-cyclopentane]-1′-yl]methanesulfonamide], the EC50 was determined as 2.1 nM and the Emax stood at 110%.
Take `CS(=O)(=O)N[C@H]1CC[C@@]2(Cc3ccc(C(F)F)c(c3)-c3cccc(F)c3OCc3coc2n3)C1` [Example 103, N-[(1′S,14R)-19-(difluoromethyl)-6-fluoro-spiro[8,12-dioxa-21-azatetracyclo[14.3.1.110,13.02,7]henicosa-1(19),2,4,6,10,13(21),16(20),17-octaene-14,3′-cyclopentane]-1′-yl]methanesulfonamide]: the 50% effective concentration (EC50) was determined as 3.3 nM and the maximal response (Emax) came to 99%.
In the case of `CS(=O)(=O)N[C@H]1CC[C@@]2(Cc3cc(ncc3F)-c3cccc(F)c3OCc3coc2n3)C1` [Example 105, N-[(1′S,14R)-6,17-difluorospiro[8,12-dioxa-19,21-diazatetracyclo[14.3.1.110,13.02,7]henicosa-1(20),2,4,6,10,13(21),16,18-octaene-14,3′-cyclopentane]-1′-yl]methanesulfonamide], the EC50 worked out at 6.1 nM and the Emax stood at 97%.
On the same counts, the results for `CS(=O)(=O)N[C@H]1CC[C@@]2(Cc3cc(c(F)cn3)-c3cccc(F)c3OCc3coc2n3)C1` [Example 106, N-[(1′S,14S)-6,19-difluorospiro[8,12-dioxa-17,21-diazatetracyclo[14.3.1.110,13.02,7]henicosa-1(20),2,4,6,10,13(21),16,18-octaene-14,3′-cyclopentane]-1′-yl]methanesulfonamide] are 26 nM and 98%.
Taken in the same sequence, the figures for `CS(=O)(=O)N[C@@H]1CC[C@]2(Cc3cc(c(F)cc3F)-c3cccc(F)c3OCc3coc2n3)C1` [Example 107, N-[(1′R,14S)-6,17,19-trifluorospiro[8,12-dioxa-21-azatetracyclo[14.3.1.110,13.02,7]henicosa-1(19),2,4,6,10,13(21),16(20),17-octaene-14,3′-cyclopentane]-1′-yl]methanesulfonamide] were 2.6 nM and 100%.

As usually defined, the EC50 is the midpoint of the concentration-response curve. A word on the Emax: it is the greatest response seen or fitted, relative to the assay's reference.
